Assay results reported in PubChem BioAssay AID270 (DTP/NCI, 2004).
Values joined by “and” are separate entries in the source; they are usually repeats but may differ in a detail not shown here. Equal values may be shown once. Inconclusive results are not listed.

Test system: BDF1 mice, s.c. Lewis lung carcinoma, T/C %
Assay: NCI In Vivo Anticancer Drug Screen. Data for tumor model Lewis Lung Carcinoma (subcutaneous) in B6D2F1 (BDF1) mice
In short: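 First, mice carry a transplantable tumor. Next, groups receive either compound or vehicle. Finally, survival or tumor dimensions in the dosed animals are divided by the corresponding control figure.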

[1] = endpoint: mean tumor weight, dose: 12.5 mg/kg/injection, schedule: Q01DX011 (ip), vehicle: saline, higher = larger tumour

CN1C2CCC1CC(OC(=O)C(CO)c1ccccc1)C2 (stereo not given)
T/C [1]: 92 % of control
T/C (endpoint: mean tumor weight, dose: 50.0 mg/kg/injection, schedule: Q01DX011 (ip), vehicle: saline, higher = larger tumour): 72 % of control
T/C (endpoint: mean tumor weight, dose: 100.0 mg/kg/injection, schedule: Q01DX011 (ip), vehicle: saline, higher = larger tumour): 154 % of control

O=C(NO)c1ccccc1O
T/C (endpoint: median survival time, dose: 6.25 mg/kg/injection, schedule: Q01DX009 (ip), vehicle: saline, higher = longer survival): 109 % of control
T/C (endpoint: median survival time, dose: 12.5 mg/kg/injection, schedule: Q01DX009 (ip), vehicle: saline, higher = longer survival): 106 % of control
T/C (endpoint: median survival time, dose: 25.0 mg/kg/injection, schedule: Q01DX009 (ip), vehicle: saline, higher = longer survival): 108 % of control
T/C (endpoint: median survival time, dose: 50.0 mg/kg/injection, schedule: Q01DX009 (ip), vehicle: saline, higher = longer survival): 103 % of control
T/C (endpoint: median survival time, dose: 400.0 mg/kg/injection, schedule: Q01DX009 (ip), vehicle: saline with Tween-80, higher = longer survival): 113 % of control

O=[N+]([O-])c1cc([N+](=O)[O-])c(Br)cc1Cl
T/C (endpoint: median survival time, dose: 2.5 mg/kg/injection, schedule: Q01DX009 (ip), vehicle: Klucel (hydroxypropylcellulose) (HPC), higher = longer survival): 104 % of control
T/C (endpoint: median survival time, dose: 5.0 mg/kg/injection, schedule: Q01DX009 (ip), vehicle: Klucel (hydroxypropylcellulose) (HPC), higher = longer survival): 97 % of control
T/C (endpoint: median survival time, dose: 10.0 mg/kg/injection, schedule: Q01DX009 (ip), vehicle: Klucel (hydroxypropylcellulose) (HPC), higher = longer survival): 105 % of control

CC1=C(/C=C/C(C)=C/C=C/C(C)=C/C=O)C(C)(C)CCC1
T/C (endpoint: median survival time, dose: 16.0 mg/kg/injection, schedule: Q01DX005 (ip), vehicle: DMSO, higher = longer survival): 153 % of control
T/C (endpoint: median survival time, dose: 32.0 mg/kg/injection, schedule: Q01DX005 (ip), vehicle: DMSO, higher = longer survival): 151 % of control

CN(C)c1ccc(C(N)=O)cn1
T/C (endpoint: mean tumor weight, dose: 1.5 mg/kg/injection, schedule: Q01DX011 (ip), vehicle: saline, higher = larger tumour): 100 % of control
T/C (endpoint: mean tumor weight, dose: 3.0 mg/kg/injection, schedule: Q01DX011 (ip), vehicle: saline, higher = larger tumour): 63 % of control
T/C (endpoint: mean tumor weight, dose: 6.0 mg/kg/injection, schedule: Q01DX011 (ip), vehicle: saline, higher = larger tumour): 36 % of control

NC(Cc1cc([N+](=O)[O-])ccc1CN(CCCl)CCCl)C(=O)O (stereo not given)
T/C (endpoint: median survival time, dose: 1.0 mg/kg/injection, schedule: Q01DX009 (ip), vehicle: Klucel (hydroxypropylcellulose) (HPC), higher = longer survival): 110 % of control
T/C (endpoint: median survival time, dose: 2.0 mg/kg/injection, schedule: Q01DX009 (ip), vehicle: Klucel (hydroxypropylcellulose) (HPC), higher = longer survival): 116 % of control
T/C (endpoint: median survival time, dose: 3.12 mg/kg/injection, schedule: Q01DX001 (ip), vehicle: Klucel (hydroxypropylcellulose) (HPC), higher = longer survival): 107 % of control
T/C (endpoint: median survival time, dose: 6.25 mg/kg/injection, schedule: Q01DX001 (ip), vehicle: Klucel (hydroxypropylcellulose) (HPC), higher = longer survival): 104 % of control
T/C (endpoint: median survival time, dose: 12.5 mg/kg/injection, schedule: Q01DX001 (ip), vehicle: Klucel (hydroxypropylcellulose) (HPC), higher = longer survival): 103 % of control

Nc1nc(SN=Nc2ccc(S(=O)(=O)O)cc2)c2[nH]cnc2n1
T/C (endpoint: mean tumor weight, dose: 1.0 mg/kg/injection, schedule: Q01DX011 (ip), vehicle: saline, higher = larger tumour): 78 % of control
T/C (endpoint: mean tumor weight, dose: 5.0 mg/kg/injection, schedule: Q01DX011 (ip), vehicle: saline, higher = larger tumour): 65 % of control
T/C (endpoint: mean tumor weight, dose: 9.0 mg/kg/injection, schedule: Q01DX011 (ip), vehicle: saline, higher = larger tumour): 40 % of control
T/C (endpoint: mean tumor weight, dose: 15.0 mg/kg/injection, schedule: Q01DX011 (ip), vehicle: saline, higher = larger tumour): 40 % of control

C[C@@H](N)[C@@H](O)c1ccccc1
T/C (endpoint: mean tumor weight, dose: 3.13 mg/kg/injection, schedule: Q01DX011 (ip), vehicle: saline, higher = larger tumour): 91 % of control
T/C (endpoint: mean tumor weight, dose: 6.25 mg/kg/injection, schedule: Q01DX011 (ip), vehicle: saline, higher = larger tumour): 67 % of control
T/C [1]: 45 % of control

C[C@]12CC[C@@H]3c4ccccc4CC[C@H]3[C@@H]1CC[C@@H]2O
T/C (endpoint: mean tumor weight, dose: 43.8 mg/kg/injection, schedule: Q01DX011 (sc), vehicle: steriod suspending solution, higher = larger tumour): 71 % of control
T/C (endpoint: mean tumor weight, dose: 87.5 mg/kg/injection, schedule: Q01DX011 (sc), vehicle: steriod suspending solution, higher = larger tumour): 51 % of control
T/C (endpoint: mean tumor weight, dose: 125.0 mg/kg/injection, schedule: Q01DX011 (sc), vehicle: steriod suspending solution, higher = larger tumour): 120 % of control
T/C (endpoint: mean tumor weight, dose: 175.0 mg/kg/injection, schedule: Q01DX011 (sc), vehicle: steriod suspending solution, higher = larger tumour): 56 % of control
T/C (endpoint: mean tumor weight, dose: 250.0 mg/kg/injection, schedule: Q01DX011 (sc), vehicle: steriod suspending solution, higher = larger tumour): 45 % of control and 69 % of control
T/C (endpoint: mean tumor weight, dose: 350.0 mg/kg/injection, schedule: Q01DX011 (sc), vehicle: steriod suspending solution, higher = larger tumour): 32 % of control
T/C (endpoint: mean tumor weight, dose: 400.0 mg/kg/injection, schedule: Q01DX011 (sc), vehicle: steriod suspending solution, higher = larger tumour): 14 % of control
T/C (endpoint: mean tumor weight, dose: 600.0 mg/kg/injection, schedule: Q01DX011 (sc), vehicle: steriod suspending solution, higher = larger tumour): 22 % of control
T/C (endpoint: mean tumor weight, dose: 1000.0 mg/kg/injection, schedule: Q01DX011 (sc), vehicle: steriod suspending solution, higher = larger tumour): 35 % of control and 54 % of control

CN(C)C=Nc1ccc2c3c(cccc13)CC2
T/C (endpoint: median survival time, dose: 6.25 mg/kg/injection, schedule: Q01DX009 (ip), vehicle: Klucel (hydroxypropylcellulose) (HPC), higher = longer survival): 108 % of control
T/C (endpoint: median survival time, dose: 12.5 mg/kg/injection, schedule: Q01DX009 (ip), vehicle: Klucel (hydroxypropylcellulose) (HPC), higher = longer survival): 107 % of control
T/C (endpoint: median survival time, dose: 25.0 mg/kg/injection, schedule: Q01DX009 (ip), vehicle: Klucel (hydroxypropylcellulose) (HPC), higher = longer survival): 122 % of control
